Measured values taken from ChEMBL document CHEMBL1201862, “PubChem BioAssay data set” (2004).
Structures can show the parent of a compound that is named as a salt. The source made the active and inactive calls.

Legend:
[1] = Luminescence Cell-Based Dose Response HTS to Identify Activators of Luciferase Translation or Activity in H4 […] Cells. [Related pubchem assays: 1829 (Project Summary), 1814 (Primary HTS)]; format: functional
[2] = Luminescence Cell-Based Dose Confirmation HTS to Identify Activators of 5'UTR Stem-Loop Driven Alpha-Synuclein mRNA Translation in H4 Neuroglioblastoma Cells. [Related pubchem assays: 1829 (Project Summary), 1814 (Primary HTS)]; format: functional
[3] = molecular target: T1, Sentrin-specific protease 8 (Homo sapiens, UniProt Q96LD8); format: functional
T1 sequence (Q96LD8 whole entry): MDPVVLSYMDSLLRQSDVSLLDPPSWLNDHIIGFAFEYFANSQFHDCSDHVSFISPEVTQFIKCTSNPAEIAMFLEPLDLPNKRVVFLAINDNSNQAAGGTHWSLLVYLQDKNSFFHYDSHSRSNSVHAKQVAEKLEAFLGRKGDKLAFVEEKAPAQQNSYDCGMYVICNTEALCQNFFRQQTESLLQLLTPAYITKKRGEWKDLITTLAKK

[4] = molecular target: T1, Sentrin-specific protease 8; format: functional; remark: listed apart in the source
[5] = system: H4; test: Luminescence Cell-Based Dose Response HTS to Identify Activators of 5'UTR Stem-Loop Driven Prion Protein mRNA Translation in H4 Neuroglioblastoma Cells. [Related pubchem assays: 1829 (Project Summary), 1814 (Primary HTS)]; format: functional; conditions: Homo sapiens
[6] = molecular target: T2, Aryl hydrocarbon receptor (Homo sapiens, UniProt P35869); test: Luminescence-based cell-based high throughput dose response assay for activators of the Aryl Hydrocarbon Receptor (AHR). [Related pubchem assays: 2796 (Primary screen (AHR activators in singlicate)), 2845 (Confirmation screen (AHR activators in triplicate)), 434939 (Counterscreen (PXR activators in triplicate)), 2804 (Summary (AHR activators))]; format: ADME
T2 sequence (P35869 whole entry): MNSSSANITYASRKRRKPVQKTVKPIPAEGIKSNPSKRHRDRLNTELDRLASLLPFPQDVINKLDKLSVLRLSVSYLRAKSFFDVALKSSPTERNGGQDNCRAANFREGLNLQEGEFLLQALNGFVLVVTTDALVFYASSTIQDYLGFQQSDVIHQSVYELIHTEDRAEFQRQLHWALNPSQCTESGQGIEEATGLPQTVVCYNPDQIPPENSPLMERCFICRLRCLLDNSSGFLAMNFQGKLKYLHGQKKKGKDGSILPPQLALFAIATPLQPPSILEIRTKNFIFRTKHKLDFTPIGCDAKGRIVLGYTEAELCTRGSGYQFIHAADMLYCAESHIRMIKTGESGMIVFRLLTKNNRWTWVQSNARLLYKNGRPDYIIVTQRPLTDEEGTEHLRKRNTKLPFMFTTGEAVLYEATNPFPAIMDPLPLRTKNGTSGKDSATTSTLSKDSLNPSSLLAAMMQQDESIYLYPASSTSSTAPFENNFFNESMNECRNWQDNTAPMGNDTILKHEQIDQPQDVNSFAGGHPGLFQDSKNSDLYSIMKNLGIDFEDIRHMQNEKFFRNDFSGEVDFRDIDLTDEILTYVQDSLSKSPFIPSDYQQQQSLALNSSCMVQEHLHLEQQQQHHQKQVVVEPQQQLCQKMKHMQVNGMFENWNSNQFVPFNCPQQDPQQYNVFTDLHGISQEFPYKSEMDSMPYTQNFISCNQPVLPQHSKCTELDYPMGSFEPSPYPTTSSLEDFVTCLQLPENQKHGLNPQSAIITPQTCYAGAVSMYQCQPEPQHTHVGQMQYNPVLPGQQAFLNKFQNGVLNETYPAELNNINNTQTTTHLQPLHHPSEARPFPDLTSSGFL

[7] = molecular target: T3, Leucine aminopeptidase (Plasmodium falciparum 3D7, UniProt Q8IL11); test: P. falciparum M17LAP inhibitors, primary screen, biochemical, fluorogenic H-Leu-NHMec substrate, 1536-well (AID 1619); format: functional
T3 sequence (Q8IL11 whole entry): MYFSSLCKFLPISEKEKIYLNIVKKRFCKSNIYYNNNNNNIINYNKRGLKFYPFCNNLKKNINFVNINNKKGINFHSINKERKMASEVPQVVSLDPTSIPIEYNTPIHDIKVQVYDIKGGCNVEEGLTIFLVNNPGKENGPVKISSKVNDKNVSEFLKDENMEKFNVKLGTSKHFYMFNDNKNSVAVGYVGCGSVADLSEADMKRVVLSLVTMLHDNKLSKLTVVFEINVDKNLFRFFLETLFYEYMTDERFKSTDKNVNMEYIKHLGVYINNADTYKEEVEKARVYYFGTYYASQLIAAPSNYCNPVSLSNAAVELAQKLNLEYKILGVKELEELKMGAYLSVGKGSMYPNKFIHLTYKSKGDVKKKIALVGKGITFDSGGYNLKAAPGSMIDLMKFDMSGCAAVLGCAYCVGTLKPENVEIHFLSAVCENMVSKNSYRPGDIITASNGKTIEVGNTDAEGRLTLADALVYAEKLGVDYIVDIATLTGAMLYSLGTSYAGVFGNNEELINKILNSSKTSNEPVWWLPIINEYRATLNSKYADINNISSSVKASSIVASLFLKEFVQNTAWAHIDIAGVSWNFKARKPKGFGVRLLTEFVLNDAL

[8] = molecular target: Arf-GAP with SH3 domain, ANK repeat and PH domain-containing protein 1 (Homo sapiens, UniProt Q9ULH1); format: functional;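 further: biochemical fluorescence polarization dose–response screen measuring inhibition of ASAP1; ASAP1 GAP domain stimulating GTP hydrolysis by truncated human ARF1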
[9] = system: H9c2; test: cells; format: functional, cell-based; conditions: Rattus norvegicus, H9c2, Myocardium;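 further: confirmatory concentration-response retest of ultra-high-throughput screening hits for modulation of myocardial damage; cell death induced by hydrogen peroxide oxidative stress; compound pretreatment for 60 min then peroxide exposure for 2 h; potency is for protecting the cells against peroxide damage rather than for killing them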
[10] = system: HEK293; test: cells; conditions: Homo sapiens
[11] = cells; format: functional
[12] = THP-1 cell cytotoxicity, dose response, cytotoxicity control for non-replicating M. tuberculosis project (AID 489025); format: functional
[13] = molecular target: T4, Sphingosine 1-phosphate receptor 4 (Homo sapiens, UniProt O95977); test: Fluorescence dose response cell-based high throughput screening assay for antagonists of the Sphingosine 1-Phosphate Receptor 4 (S1P4). [Related pubchem assays: 1524 (Confirmation in triplicates.), 1510 (Primary screen.)]; format: functional
T4 sequence (O95977 whole entry): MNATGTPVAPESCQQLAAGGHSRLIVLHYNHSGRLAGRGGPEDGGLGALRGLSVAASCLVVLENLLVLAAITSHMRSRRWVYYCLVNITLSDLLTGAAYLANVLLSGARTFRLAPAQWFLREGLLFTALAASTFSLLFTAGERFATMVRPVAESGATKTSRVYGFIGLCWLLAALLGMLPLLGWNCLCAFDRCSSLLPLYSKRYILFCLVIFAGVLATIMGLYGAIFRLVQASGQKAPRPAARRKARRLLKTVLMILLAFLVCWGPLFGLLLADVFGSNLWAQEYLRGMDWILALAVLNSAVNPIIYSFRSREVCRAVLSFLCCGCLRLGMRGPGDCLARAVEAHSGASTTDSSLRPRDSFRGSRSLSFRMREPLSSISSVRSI

[14] = reduction of Shn3 3'UTR-driven luciferase in osteoblasts – cell-based, Clone20 osteoblasts, firefly luciferase, cherry-picked, dose response (AID 624132); format: functional;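 further: firefly luciferase luminescence from reporter carrying the Shn3 3'UTR in osteoblasts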
[15] = molecular target: T5, Replicative DNA helicase DnaB (Mycobacterium tuberculosis, UniProt P9WMR3); test: DnaB intein splicing inhibitors, dose response, biochemical, cell-free fluorescence (AID 449749); format: functional
T5 sequence (P9WMR3 whole entry): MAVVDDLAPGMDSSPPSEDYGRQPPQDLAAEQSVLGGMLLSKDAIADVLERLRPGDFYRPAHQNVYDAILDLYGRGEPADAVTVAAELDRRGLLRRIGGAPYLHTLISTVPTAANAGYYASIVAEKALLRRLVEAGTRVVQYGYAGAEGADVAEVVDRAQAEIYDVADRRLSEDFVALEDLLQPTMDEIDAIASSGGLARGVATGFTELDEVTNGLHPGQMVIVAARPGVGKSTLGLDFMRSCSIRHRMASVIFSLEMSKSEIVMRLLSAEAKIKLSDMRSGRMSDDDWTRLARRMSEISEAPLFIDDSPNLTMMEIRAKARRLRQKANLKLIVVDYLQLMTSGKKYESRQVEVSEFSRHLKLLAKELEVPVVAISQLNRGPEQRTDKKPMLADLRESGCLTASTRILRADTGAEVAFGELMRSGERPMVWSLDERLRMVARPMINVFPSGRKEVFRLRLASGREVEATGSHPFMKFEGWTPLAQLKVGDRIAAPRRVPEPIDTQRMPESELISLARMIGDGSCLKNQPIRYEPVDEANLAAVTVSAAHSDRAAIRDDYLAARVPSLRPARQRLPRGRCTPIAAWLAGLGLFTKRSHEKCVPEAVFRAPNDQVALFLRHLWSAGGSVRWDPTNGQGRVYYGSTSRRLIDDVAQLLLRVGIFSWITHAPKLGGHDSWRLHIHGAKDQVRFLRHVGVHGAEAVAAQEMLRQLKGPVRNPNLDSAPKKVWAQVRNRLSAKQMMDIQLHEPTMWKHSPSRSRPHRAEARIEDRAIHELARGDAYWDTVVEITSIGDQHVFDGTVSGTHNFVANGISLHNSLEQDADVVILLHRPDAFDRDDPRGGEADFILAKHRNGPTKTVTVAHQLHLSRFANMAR

[16] = system: HEK293; test: cells; conditions: Homo sapiens; remark: listed apart in the source
[17] = system: INS1; test: INS-1E survival protection against cytokine death – cell-based, luminescence, retest, dose response (AID 449756); format: functional; conditions: Rattus norvegicus;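 further: cell death triggered by IL-1 beta plus TNF-alpha plus IFN-gamma mixture; protective hits raise ATP signal compared with cytokine alone wells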
[18] = molecular target: T6, Protein RecA (Mycobacterium tuberculosis, UniProt P9WHJ3); test: Fluorescence Cell-Free Homogeneous Dose Retest to Identify Inhibitors of RecA-Intein Splicing Activity. [Related pubchem assays (depositor defined):AID2097, AID2223, AID489010, AID492950]; format: functional
T6 sequence (P9WHJ3 whole entry): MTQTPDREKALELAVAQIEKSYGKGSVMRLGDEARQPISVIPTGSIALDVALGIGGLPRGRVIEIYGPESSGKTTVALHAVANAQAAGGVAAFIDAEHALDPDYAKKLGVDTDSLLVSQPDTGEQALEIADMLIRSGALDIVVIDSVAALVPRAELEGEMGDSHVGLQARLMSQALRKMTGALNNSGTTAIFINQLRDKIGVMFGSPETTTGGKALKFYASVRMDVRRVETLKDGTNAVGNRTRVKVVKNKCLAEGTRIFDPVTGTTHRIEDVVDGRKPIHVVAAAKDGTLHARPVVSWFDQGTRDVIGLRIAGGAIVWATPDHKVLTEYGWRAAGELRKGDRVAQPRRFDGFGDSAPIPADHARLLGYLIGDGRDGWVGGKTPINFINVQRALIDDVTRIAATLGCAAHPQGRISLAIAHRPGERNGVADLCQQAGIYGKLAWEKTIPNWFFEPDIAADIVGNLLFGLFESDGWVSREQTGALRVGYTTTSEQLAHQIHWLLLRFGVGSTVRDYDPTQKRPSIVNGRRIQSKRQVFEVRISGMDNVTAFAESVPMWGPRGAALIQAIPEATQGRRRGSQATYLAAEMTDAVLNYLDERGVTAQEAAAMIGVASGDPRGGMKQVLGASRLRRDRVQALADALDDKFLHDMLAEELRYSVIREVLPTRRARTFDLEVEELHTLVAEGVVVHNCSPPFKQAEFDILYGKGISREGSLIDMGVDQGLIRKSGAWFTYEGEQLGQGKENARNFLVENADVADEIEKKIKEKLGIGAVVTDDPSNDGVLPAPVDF

[19] = HepG2 cell cytotoxicity, dose response, cytotoxicity control for non-replicating M. tuberculosis project (AID 489018); format: functional; conditions: Mycobacterium tuberculosis
[20] = non-specific 3'UTR reporter inhibition in Clone20-Shn3RL – cell-based, Renilla luciferase, cherry-picked, counter-screen for Shn3 inhibitor project, dose response (AID 624133); format: functional
[21] = Fluorescence-based cell-based high throughput dose response assay for inhibitors of the interaction of nucleotide-binding oligomerization domain containing 2 (NOD2) and the receptor-interacting serine-threonine kinase 2 (RIPK2).; format: functional; conditions: Homo sapiens
[22] = molecular target: Sphingosine 1-phosphate receptor 1 (Homo sapiens, UniProt P21453); format: functional;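 further: Tango beta-arrestin reporter U2OS cells stimulated with S1P near its EC80; inhibitor potency meaning antagonism of receptor activation by the natural agonist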
[23] = molecular target: Beta Lactamase (Pseudomonas aeruginosa, UniProt Q932Y6); test: BLA reporter interference, concentration series – BLA reporter cells, FRET fluorescence, artefact control for NOD2-RIPK2 interaction inhibitor project, dose response (AID 651552); format: functional, cell-based
[24] = Vero E6 cell cytotoxicity, dose response, cytotoxicity control for non-replicating M. tuberculosis project, secondary assay (AID 492998); format: functional, VeroE6; conditions: Vero C1008
[25] = loss of viability in HepG2 cells – cell-based, CellTiter-Glo, cherry-picked, cytotoxicity control for Shn3 inhibitor project, dose response (AID 624134); format: functional
[26] = Counterscreen for inhibitors of Trypanosoma brucei methionyl tRNA synthetase (MetRS): Luminescence-based cell-based high throughput dose response assay to identify compounds that are cytotoxic to Jurkat human T lymphocyte cells.; format: functional
[27] = molecular target: Mu-type opioid receptor (Homo sapiens, UniProt P35372); format: functional, cell-based;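 further: U2OS cells with beta-arrestin recruitment to OPRM1 by beta-gal complementation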
Mu-type opioid receptor, sequence (P35372 whole entry): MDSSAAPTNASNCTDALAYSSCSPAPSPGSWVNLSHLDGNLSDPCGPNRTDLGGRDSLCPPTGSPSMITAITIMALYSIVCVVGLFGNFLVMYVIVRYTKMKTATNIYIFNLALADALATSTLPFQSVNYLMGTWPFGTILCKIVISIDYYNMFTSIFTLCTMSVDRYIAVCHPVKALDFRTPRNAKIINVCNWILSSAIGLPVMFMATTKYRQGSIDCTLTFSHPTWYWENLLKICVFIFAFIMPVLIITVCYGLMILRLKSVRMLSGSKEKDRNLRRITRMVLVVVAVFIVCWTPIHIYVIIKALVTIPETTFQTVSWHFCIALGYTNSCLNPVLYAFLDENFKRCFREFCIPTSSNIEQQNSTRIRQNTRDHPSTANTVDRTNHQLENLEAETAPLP

Arf-GAP with SH3 domain, ANK repeat and PH domain-containing protein 1, sequence (Q9ULH1 whole entry, the tested form may be a part): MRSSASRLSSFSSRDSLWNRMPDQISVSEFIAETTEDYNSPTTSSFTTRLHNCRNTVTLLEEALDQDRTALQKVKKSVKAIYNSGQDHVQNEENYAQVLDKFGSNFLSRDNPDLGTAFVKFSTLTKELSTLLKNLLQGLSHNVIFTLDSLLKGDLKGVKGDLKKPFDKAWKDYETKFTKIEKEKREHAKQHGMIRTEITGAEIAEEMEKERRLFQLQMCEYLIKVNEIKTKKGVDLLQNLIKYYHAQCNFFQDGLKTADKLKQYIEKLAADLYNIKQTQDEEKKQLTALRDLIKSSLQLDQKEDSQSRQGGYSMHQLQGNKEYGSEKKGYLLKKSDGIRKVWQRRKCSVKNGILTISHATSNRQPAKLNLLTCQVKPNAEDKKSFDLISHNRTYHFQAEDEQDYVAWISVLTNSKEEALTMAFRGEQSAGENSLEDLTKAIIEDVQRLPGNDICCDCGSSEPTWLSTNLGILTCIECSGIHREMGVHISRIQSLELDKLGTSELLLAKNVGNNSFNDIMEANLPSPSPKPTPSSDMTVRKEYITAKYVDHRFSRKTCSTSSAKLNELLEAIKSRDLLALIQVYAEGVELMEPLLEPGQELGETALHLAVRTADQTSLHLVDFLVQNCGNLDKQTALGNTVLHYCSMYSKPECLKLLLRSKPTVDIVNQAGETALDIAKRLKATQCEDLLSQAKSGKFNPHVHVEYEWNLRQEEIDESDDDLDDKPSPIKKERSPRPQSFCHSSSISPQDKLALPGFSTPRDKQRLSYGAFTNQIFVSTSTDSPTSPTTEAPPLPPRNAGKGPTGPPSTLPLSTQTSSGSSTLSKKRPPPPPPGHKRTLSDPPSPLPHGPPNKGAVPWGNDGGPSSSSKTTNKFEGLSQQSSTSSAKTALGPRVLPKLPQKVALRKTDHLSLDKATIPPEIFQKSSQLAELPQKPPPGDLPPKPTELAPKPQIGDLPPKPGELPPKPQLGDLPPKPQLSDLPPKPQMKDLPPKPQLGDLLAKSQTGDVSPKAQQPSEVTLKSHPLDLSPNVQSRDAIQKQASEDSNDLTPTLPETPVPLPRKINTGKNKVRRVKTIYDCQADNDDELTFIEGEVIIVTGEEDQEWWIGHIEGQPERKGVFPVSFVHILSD
Sphingosine 1-phosphate receptor 1, sequence (P21453 whole entry): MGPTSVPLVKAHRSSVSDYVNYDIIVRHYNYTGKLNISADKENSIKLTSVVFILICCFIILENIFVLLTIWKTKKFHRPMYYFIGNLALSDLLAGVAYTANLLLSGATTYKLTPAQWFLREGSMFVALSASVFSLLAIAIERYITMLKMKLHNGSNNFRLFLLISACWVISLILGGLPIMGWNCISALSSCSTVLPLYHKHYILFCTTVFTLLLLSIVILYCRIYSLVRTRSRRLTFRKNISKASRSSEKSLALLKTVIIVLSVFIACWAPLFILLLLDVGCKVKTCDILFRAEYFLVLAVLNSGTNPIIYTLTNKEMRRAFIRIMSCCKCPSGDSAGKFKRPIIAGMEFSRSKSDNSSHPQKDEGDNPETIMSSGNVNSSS
Beta Lactamase, sequence (Q932Y6 whole entry): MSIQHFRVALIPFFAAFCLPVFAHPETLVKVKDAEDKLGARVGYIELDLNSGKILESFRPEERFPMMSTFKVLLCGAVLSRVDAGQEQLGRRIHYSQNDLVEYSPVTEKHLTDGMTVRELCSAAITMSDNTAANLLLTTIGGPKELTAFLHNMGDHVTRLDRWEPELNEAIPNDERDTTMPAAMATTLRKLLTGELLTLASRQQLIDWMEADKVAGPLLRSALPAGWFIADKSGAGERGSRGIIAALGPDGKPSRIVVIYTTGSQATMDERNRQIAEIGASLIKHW

SMILES: O=C1c2ccccc2-c2nc3ccccc3nc21
- EC50 [1]: 42.2 µM (active)
- EC50 [2]: 0.307 µM (active)
- IC50 [3]: 5.17 µM (active)
- IC50 [4]: 8.84 µM (active)
- EC50 [5]: > 120 µM (not active)
- EC50 [6]: 1.22 µM (active)

SMILES: Cc1ccc(NC(=O)CSc2ncccc2C(=O)Oc2cccc([N+](=O)[O-])c2)cc1Cl
- IC50 [7]: 32 µM (active)
- IC50 [8]: 45.7 µM (inactive)

SMILES: c1ccc(-c2cc(-c3nnc4sc(-c5ccccn5)nn34)[nH]n2)cc1
- IC50 [9]: > 79 µM (inactive)
- IC50 [8]: 165 µM (inactive)

SMILES: CC1=NNC(=O)/C1=C\c1cn(-c2ccccc2)nc1-c1ccccc1
- EC50 [10]: > 59.7 µM (inactive)
- IC50 [11]: 20.6 µM (active)
- CC50 [12]: 6.16 µM (active)
- IC50 [13]: 2 µM (active)
- AC50 [14]: 8.42 µM (active)
- AC50 [15]: 1.92 µM (active)
- EC50 [16]: > 59.7 µM (inactive)
- AC50 [17]: 7.76 µM (active)
- EC50 [18]: 0.978 µM (active)
- CC50 [19]: 13 µM (active)
- AC50 [20]: 9.3 µM (active)
- IC50 [21]: 4.43 µM (active)
- IC50 [22]: 6.83 µM (active)
- IC50 [23]: 49.8 µM (inactive)
- CC50 [24]: 10.1 µM (active)
- AC50 [25]: 8.9 µM (active)

SMILES: N#Cc1ccccc1CSc1nc2cc(Br)c[nH]c-2n1
- IC50 [26]: 83.3 µM (inactive)

SMILES: CC(C)[C@@]1(NC(=O)[C@@H]2C[C@@H]3c4cccc5[nH]cc(c45)C[C@H]3N(C)C2)O[C@@]2(O)[C@@H]3CCCN3C(=O)[C@H](Cc3ccccc3)N2C1=O [DIHYDROERGOCRISTINE MESYLATE]
- EC50 [27]: 92.5 µM (inactive)
